Measured values from PMC9022596, “Convergent Evolution of Antibiotic Tolerance in Patients with Persistent Methicillin-Resistant Staphylococcus aureus Bacteremia” (Infection and Immunity, 2022).
Where “and” joins values, the source holds several entries; their conditions need not be identical. Equal entries are not always repeated.

Experiments:
Assay in all cases: microbe, parasite or virus in culture
Set-up in all cases: species or system Staphylococcus aureus clinical blood isolates and ATCC 29213; Broth microdilution MIC in cation-adjusted Mueller-Hinton broth with 50 ug/mL CaCl2, EUCAST reading, 37 C
S. aureus ATCC 29213 = system: T1, S. aureus ATCC 29213; settings: Staphylococcus aureus, ATCC29213, 16 h; replicate MIC, MHB + 50 ug/mL CaCl2
T1 construct: ATCC 29213
Description: (§1) MICs were measured in cation-adjusted Mueller-Hinton broth (MHB) supplemented with 50 μg/mL CaCl2 (MHB-Ca^2+) via broth microdilution in 96-well plates with an inoculum of ∼5 × 10^5 CFU per mL. Antibiotic test concentrations ranged from 0.0625 μg/mL to 32 μg/mL by 2-fold dilutions. Plates were incubated at 37°C for 16 h without shaking, and results were interpreted in accordance with European Committee on Antimicrobial Susceptibility Testing reading guidelines ([72]). S. aureus ATCC 29213 was used as a quality-control strain.

[1] = system: T2, Staphylococcus aureus PB0101; settings: PB0101, 16 h, replicate MIC, MHB + 50 ug/mL CaCl2
T2 construct: PB0101
Description: as §1

[2] = system: T3, Staphylococcus aureus PB0207; settings: PB0207, 16 h, replicate MIC, MHB + 50 ug/mL CaCl2
T3 construct: PB0207
Description: as §1

[3] = system: T4, Staphylococcus aureus PB0208; settings: PB0208, 16 h, replicate MIC, MHB + 50 ug/mL CaCl2
T4 construct: PB0208
Description: as §1

[4] = system: T5, Staphylococcus aureus PB0411; settings: PB0411, 16 h, replicate MIC, MHB + 50 ug/mL CaCl2
T5 construct: PB0411
Description: as §1

[5] = system: T6, Staphylococcus aureus PB0610; settings: PB0610, 16 h, replicate MIC, MHB + 50 ug/mL CaCl2
T6 construct: PB0610
Description: as §1

[6] = system: T7, Staphylococcus aureus PB0701; settings: PB0701, 16 h, replicate MIC, MHB + 50 ug/mL CaCl2
T7 construct: PB0701
Description: as §1

[7] = system: T8, Staphylococcus aureus PB0702; settings: PB0702, 16 h, replicate MIC, MHB + 50 ug/mL CaCl2
T8 construct: PB0702
Description: as §1

[8] = system: T9, Staphylococcus aureus PB0804; settings: PB0804, 16 h, replicate MIC, MHB + 50 ug/mL CaCl2
T9 construct: PB0804
Description: as §1

[9] = system: T10, Staphylococcus aureus PB0906; settings: PB0906, 16 h, replicate MIC, MHB + 50 ug/mL CaCl2
T10 construct: PB0906
Description: as §1

[10] = system: T11, Staphylococcus aureus PB0911; settings: PB0911, 16 h, replicate MIC, MHB + 50 ug/mL CaCl2
T11 construct: PB0911
Description: as §1

[11] = system: T12, Staphylococcus aureus PB1405; settings: PB1405, 16 h, replicate MIC, MHB + 50 ug/mL CaCl2
T12 construct: PB1405
Description: as §1

[12] = system: T13, Staphylococcus aureus PB1511; settings: PB1511, 16 h, replicate MIC, MHB + 50 ug/mL CaCl2
T13 construct: PB1511
Description: as §1

[13] = system: T14, Staphylococcus aureus PB1802; settings: PB1802, 16 h, replicate MIC, MHB + 50 ug/mL CaCl2
T14 construct: PB1802
Description: as §1

[14] = system: T15, Staphylococcus aureus PB1803; settings: PB1803, 16 h, replicate MIC, MHB + 50 ug/mL CaCl2
T15 construct: PB1803
Description: as §1

SMILES	MIC (S. aureus ATCC 29213)	MIC [1]	MIC [2]	MIC [3]	MIC [4]	MIC [5]	MIC [6]	MIC [7]	MIC [8]	MIC [9]	MIC [10]	MIC [11]	MIC [12]	MIC [13]	MIC [14]
CCCCCCCCCC(=O)N[C@@H](Cc1c[nH]c2ccccc12)C(=O)N[C@H](CC(N)=O)C(=O)N[C@@H](CC(=O)O)C(=O)N[C@@H]1C(=O)NCC(=O)N[C@@H](CCCN)C(=O)N[C@@H](CC(=O)O)C(=O)N[C@H](C)C(=O)N[C@@H](CC(=O)O)C(=O)NCC(=O)N[C@H](CO)C(=O)N[C@@H]([C@H](C)CC(=O)O)C(=O)N[C@@H](CC(=O)c2ccccc2N)C(=O)O[C@@H]1C [Daptomycin]	1 µg/mL	1 µg/mL	1 µg/mL	1 µg/mL	1 µg/mL	1 µg/mL	1 µg/mL and 2 µg/mL	2 µg/mL	1 µg/mL	2 µg/mL	2 µg/mL and 1 µg/mL	2 µg/mL and 1 µg/mL	2 µg/mL	2 µg/mL	2 µg/mL
CCO/N=C(\C(=O)N[C@@H]1C(=O)N2C(C(=O)[O-])=C(Sc3nc(-c4cc[n+](C)cc4)cs3)CS[C@H]12)c1nsc(N)n1 [Ceftaroline]	0.25 µg/mL	0.5 µg/mL	0.5 µg/mL	0.5 µg/mL	0.5 µg/mL	0.25 µg/mL	0.25 µg/mL	0.5 µg/mL	0.5 µg/mL	0.5 µg/mL	0.5 µg/mL	0.25 µg/mL	0.5 µg/mL	0.5 µg/mL	0.5 µg/mL
CC(=O)NC[C@H]1CN(c2ccc(N3CCOCC3)c(F)c2)C(=O)O1 [Linezolid]	4 µg/mL	4 µg/mL	4 µg/mL	4 µg/mL	4 µg/mL	4 µg/mL	4 µg/mL	4 µg/mL	2 µg/mL	4 µg/mL	4 µg/mL	4 µg/mL	4 µg/mL	4 µg/mL	4 µg/mL
CN[C@H](CC(C)C)C(=O)N[C@H]1C(=O)N[C@@H](CC(N)=O)C(=O)N[C@H]2C(=O)N[C@H]3C(=O)N[C@H](C(=O)N[C@H](C(=O)O)c4cc(O)cc(O)c4-c4cc3ccc4O)[C@H](O)c3ccc(c(Cl)c3)Oc3cc2cc(c3O[C@@H]2O[C@H](CO)[C@@H](O)[C@H](O)[C@H]2O[C@H]2C[C@](C)(N)[C@H](O)[C@H](C)O2)Oc2ccc(cc2Cl)[C@H]1O [Vancomycin]	2 µg/mL	2 µg/mL	2 µg/mL and 1 µg/mL	4 µg/mL	2 µg/mL	2 µg/mL and 4 µg/mL	2 µg/mL	2 µg/mL	2 µg/mL	2 µg/mL	2 µg/mL	2 µg/mL	2 µg/mL	2 µg/mL	2 µg/mL
